Where no end group is shown, it is not given here.
Each substance was assayed on S. aureus (ATCC 29213) (assay: MIC, standard microtiter dilution (CLSI)). Conditions: not given.
Type: cell-based
Description: (§1) Description of the characteristics and growth conditions of various bacterial strains used in the study are provided in the Supporting Information (Table S3). Antibacterial susceptibility testing was carried out using a standard microtiter dilution method recommended by the clinical and laboratory standard institute (CLSI) and measured as a minimum inhibitory concentration (MIC), the lowest peptide concentration that inhibited bacterial growth. Briefly, the overnight grown cultures in the recommended broth for each bacterial strain were diluted in cation-adjusted Mueller Hinton Broth (CAMHB) to give an inoculum of 10^6 colony-forming units (CFU)/mL. A 2-fold serially diluted test peptide solution (100 μL) was added to the microtiter plates. After adding bacterial suspension (100 μL), the plates were incubated at 37 °C for 24 h, and the MICs were determined. The same protocol was used to determine the MICs in the presence of salts and serum except using the media supplemented with various cationic salts (150 mM NaCl, 4.5 mM KCl, 6 mM NH4Cl, 1 mM MgCl2, and 2 mM CaCl2) or 25% FBS. The data was acquired from three independent assays performed in triplicate.
(§2) The bacterial strains employed in this study were obtained from the American Type Culture Collection (ATCC). Each strain was propagated as recommended by the ATCC, and each strain was stored as a frozen glycerol stock at -80°C. A bacterial colony was grown on the appropriate agar as indicated in Table S1 and was used to inoculate the appropriate broth. The culture was incubated at the appropriate conditions, as mentioned in Table S1. Following the incubation, the culture was diluted to an optical density 625 nm (OD625) of 0.1 in cation adjusted Mueller Hinton Broth (CAMHB), which is equivalent to 1 × 10^8 CFU/mL. The culture was further diluted to 1 × 10^6 CFU/mL, which was used to conduct the MIC determination assay. For the S. pneumoniae strains, CAMHB + 2.5% lysed horse blood was required for the assay. The strains with their […]
(§3) Table S3. Description of the characteristics and growth conditions of various bacterial strains
For RWARRWARWWR-NH2 [5b], the “MIC against S. aureus” value was 50 µg/mL.

Same assay, conditions: broth microdilution (CLSI), CAMHB, 10^6 CFU/mL, 37 °C, 24 h; highest MIC of three independent experiments in triplicate
In the case of RRWWRRW-NH2 [1b], the “MIC, S. aureus (ATCC 29213)” value is reported as 50 µg/mL. RWARRAWRAW-NH2 [4e] was tested, and the “MIC, S. aureus (ATCC 29213)” value was greater than 100 µg/mL. In the case of RWARRWARWWR-NH2 [5b], the “MIC, S. aureus (ATCC 29213)” value is reported as 50 µg/mL. For RWARRWWR-NH2 [2c], the “MIC, S. aureus (ATCC 29213)” value was greater than 100 µg/mL. For RWARRWWRA-NH2 [3c], the “MIC, S. aureus (ATCC 29213)” value was greater than 100 µg/mL. RWIRRWIRWWR-NH2 [5c] was tested, and the “MIC, S. aureus (ATCC 29213)” value was 50 µg/mL.

Same assay, conditions: value in parentheses (μM); broth microdilution (CLSI), CAMHB, 37 °C, 24 h
With RRWWRRW-NH2 [1b] the “MIC, S. aureus (ATCC 29213)” value was 41.65 µM. For RWARRAWRAW-NH2 [4e], the “MIC, S. aureus (ATCC 29213)” value was greater than 70.74 µM. RWARRWARWWR-NH2 [5b] was tested, and the “MIC, S. aureus (ATCC 29213)” value was 29.67 µM. For RWARRWWR-NH2 [2c], the “MIC, S. aureus (ATCC 29213)” value was greater than 78.65 µM. For RWARRWWRA-NH2 [3c], the “MIC, S. aureus (ATCC 29213)” value was greater than 74.48 µM. For RWIRRWIRWWR-NH2 [5c], the “MIC, S. aureus (ATCC 29213)” value was 28.26 µM.

These substances were tested on E. coli (ATCC 25922) (assay: not given). Conditions: broth microdilution (CLSI), CAMHB, 10^6 CFU/mL, 37 °C, 24 h; highest MIC of three independent experiments in triplicate.
Description: as §1, §2, §3
RRWWRRW-NH2 [1b] was tested, and the “MIC, E. coli (ATCC 25922)” value was greater than 100 µg/mL. With RWARRAWRAW-NH2 [4e] the “MIC, E. coli (ATCC 25922)” value was greater than 100 µg/mL. For RWARRWARWWR-NH2 [5b], the “MIC, E. coli (ATCC 25922)” value was 100 µg/mL. RWARRWWR-NH2 [2c] was tested, and the “MIC, E. coli (ATCC 25922)” value was greater than 100 µg/mL. RWARRWWRA-NH2 [3c] was tested, and the “MIC, E. coli (ATCC 25922)” value was greater than 100 µg/mL. With RWIRRWIRWWR-NH2 [5c] the “MIC, E. coli (ATCC 25922)” value was 100 µg/mL.

Same assay, conditions: value in parentheses (μM); broth microdilution (CLSI), CAMHB, 37 °C, 24 h
For RRWWRRW-NH2 [1b], the “MIC, E. coli (ATCC 25922)” value was greater than 83.30 µM. RWARRAWRAW-NH2 [4e] was tested, and the “MIC, E. coli (ATCC 25922)” value was greater than 70.74 µM. In the case of RWARRWARWWR-NH2 [5b], the “MIC, E. coli (ATCC 25922)” value is reported as 59.35 µM. RWARRWWR-NH2 [2c] was tested, and the “MIC, E. coli (ATCC 25922)” value was greater than 78.65 µM. With RWARRWWRA-NH2 [3c] the “MIC, E. coli (ATCC 25922)” value was greater than 74.48 µM. In the case of RWIRRWIRWWR-NH2 [5c], the “MIC, E. coli (ATCC 25922)” value is reported as 56.52 µM.

These substances were tested on MRSA (ATCC BAA-1556) (assay: not given). Conditions: broth microdilution (CLSI), CAMHB, 10^6 CFU/mL, 37 °C, 24 h; highest MIC of three independent experiments in triplicate.
Description: as §1, §2, §3
In the case of RRWWRRW-NH2 [1b], the “MIC, MRSA (ATCC BAA-1556)” value is reported as 100 µg/mL. For RWARRAWRAW-NH2 [4e], the “MIC, MRSA (ATCC BAA-1556)” value was greater than 100 µg/mL. For RWARRWARWWR-NH2 [5b], the “MIC, MRSA (ATCC BAA-1556)” value was 100 µg/mL. With RWARRWWR-NH2 [2c] the “MIC, MRSA (ATCC BAA-1556)” value was greater than 100 µg/mL. With RWARRWWRA-NH2 [3c] the “MIC, MRSA (ATCC BAA-1556)” value was greater than 100 µg/mL. With RWIRRWIRWWR-NH2 [5c] the “MIC, MRSA (ATCC BAA-1556)” value was 50 µg/mL.

Same assay, conditions: value in parentheses (μM); broth microdilution (CLSI), CAMHB, 37 °C, 24 h
With RRWWRRW-NH2 [1b] the “MIC, MRSA (ATCC BAA-1556)” value was 83.30 µM. In the case of RWARRAWRAW-NH2 [4e], the “MIC, MRSA (ATCC BAA-1556)” value is reported as greater than 70.74 µM. With RWARRWARWWR-NH2 [5b] the “MIC, MRSA (ATCC BAA-1556)” value was 59.35 µM. RWARRWWR-NH2 [2c] was tested, and the “MIC, MRSA (ATCC BAA-1556)” value was greater than 78.65 µM. In the case of RWARRWWRA-NH2 [3c], the “MIC, MRSA (ATCC BAA-1556)” value is reported as greater than 74.48 µM. RWIRRWIRWWR-NH2 [5c] was tested, and the “MIC, MRSA (ATCC BAA-1556)” value was 28.26 µM.

Each substance was assayed on P. aeruginosa (ATCC 27883) (assay: MIC, standard microtiter dilution (CLSI)). Conditions: broth microdilution (CLSI), CAMHB, 10^6 CFU/mL, 37 °C, 24 h; highest MIC of three independent experiments in triplicate.
Type: cell-based, Pseudomonas aeruginosa
Description: as §1, §2, §3
RRWWRRW-NH2 [1b] was tested, and the “MIC, P. aeruginosa (ATCC 27883)” value was greater than 100 µg/mL. In the case of RWARRAWRAW-NH2 [4e], the “MIC, P. aeruginosa (ATCC 27883)” value is reported as greater than 100 µg/mL. In the case of RWARRWARWWR-NH2 [5b], the “MIC, P. aeruginosa (ATCC 27883)” value is reported as 100 µg/mL. For RWARRWWR-NH2 [2c], the “MIC, P. aeruginosa (ATCC 27883)” value was greater than 100 µg/mL. For RWARRWWRA-NH2 [3c], the “MIC, P. aeruginosa (ATCC 27883)” value was greater than 100 µg/mL. RWIRRWIRWWR-NH2 [5c] was tested, and the “MIC, P. aeruginosa (ATCC 27883)” value was 50 µg/mL.

Same assay, conditions: value in parentheses (μM); broth microdilution (CLSI), CAMHB, 37 °C, 24 h
In the case of RRWWRRW-NH2 [1b], the “MIC, P. aeruginosa (ATCC 27883)” value is reported as greater than 83.30 µM. For RWARRAWRAW-NH2 [4e], the “MIC, P. aeruginosa (ATCC 27883)” value was greater than 70.74 µM. With RWARRWARWWR-NH2 [5b] the “MIC, P. aeruginosa (ATCC 27883)” value was 59.35 µM. For RWARRWWR-NH2 [2c], the “MIC, P. aeruginosa (ATCC 27883)” value was greater than 78.65 µM. For RWARRWWRA-NH2 [3c], the “MIC, P. aeruginosa (ATCC 27883)” value was greater than 74.48 µM. With RWIRRWIRWWR-NH2 [5c] the “MIC, P. aeruginosa (ATCC 27883)” value was 28.26 µM.

What follows are substances tested on K. pneumoniae (ATCCBAA-1705) (assay: MIC, standard microtiter dilution (CLSI)). Conditions: broth microdilution (CLSI), CAMHB, 10^6 CFU/mL, 37 °C, 24 h; highest MIC of three independent experiments in triplicate.
Type: cell-based, Klebsiella pneumoniae
Description: as §1, §2, §3
With RRWWRRW-NH2 [1b] the “MIC, K. pneumoniae (ATCCBAA-1705)” value was greater than 100 µg/mL. For RWARRAWRAW-NH2 [4e], the “MIC, K. pneumoniae (ATCCBAA-1705)” value was greater than 100 µg/mL. For RWARRWARWWR-NH2 [5b], the “MIC, K. pneumoniae (ATCCBAA-1705)” value was greater than 100 µg/mL. RWARRWWR-NH2 [2c] was tested, and the “MIC, K. pneumoniae (ATCCBAA-1705)” value was greater than 100 µg/mL. RWARRWWRA-NH2 [3c] was tested, and the “MIC, K. pneumoniae (ATCCBAA-1705)” value was greater than 100 µg/mL. In the case of RWIRRWIRWWR-NH2 [5c], the “MIC, K. pneumoniae (ATCCBAA-1705)” value is reported as 100 µg/mL.

Same assay, conditions: value in parentheses (μM); broth microdilution (CLSI), CAMHB, 37 °C, 24 h
For RRWWRRW-NH2 [1b], the “MIC, K. pneumoniae (ATCCBAA-1705)” value was greater than 83.30 µM. RWARRAWRAW-NH2 [4e] was tested, and the “MIC, K. pneumoniae (ATCCBAA-1705)” value was greater than 70.74 µM. For RWARRWARWWR-NH2 [5b], the “MIC, K. pneumoniae (ATCCBAA-1705)” value was greater than 59.35 µM. For RWARRWWR-NH2 [2c], the “MIC, K. pneumoniae (ATCCBAA-1705)” value was greater than 78.65 µM. For RWARRWWRA-NH2 [3c], the “MIC, K. pneumoniae (ATCCBAA-1705)” value was greater than 74.48 µM. In the case of RWIRRWIRWWR-NH2 [5c], the “MIC, K. pneumoniae (ATCCBAA-1705)” value is reported as 56.52 µM.

What follows are substances tested on human red blood cells (hRBCs) (assay: Hemolytic assay). Conditions: hRBC suspension 4% in PBS, 2 h, 37 °C, hemoglobin release at 567 nm; 1% Triton X-100 = 100%.
Type: cell-based
Description: The hemolytic activity of all peptides (1a–8d) was determined using hRBC. The assay was conducted by adding 75 μL of 2-fold serially diluted peptides to 75 μL of hRBC suspension (4% in PBS). The plates were incubated for 2 h at 37 °C without agitation. In order to determine the hemolysis at each tested concentration of peptides, the plate was centrifuged, and 100 μL of the supernatant was transferred to another 96-well plate to determine hemoglobin release spectrophotometrically at 567 nm. Percent hemolysis was calculated by the following formula [drawing 1] where A represents the absorbance of the peptide sample at 567 nm and A0 and At represent zero percent and 100% hemolysis determined in phosphate buffer saline and 1% Triton X-100, respectively.
With RRWWRRW-NH2 [1b] the “HC50 (concentration at which 50% hemolysis was observed)” value was greater than 500 µg/mL. With RWARRAWRAW-NH2 [4e] the “HC50 (concentration at which 50% hemolysis was observed)” value was greater than 500 µg/mL. For RWARRWARWWR-NH2 [5b], the “HC50 (concentration at which 50% hemolysis was observed)” value was greater than 500 µg/mL. In the case of RWARRWWR-NH2 [2c], the “HC50 (concentration at which 50% hemolysis was observed)” value is reported as greater than 500 µg/mL. For RWARRWWRA-NH2 [3c], the “HC50 (concentration at which 50% hemolysis was observed)” value was greater than 500 µg/mL. With RWIRRWIRWWR-NH2 [5c] the “HC50 (concentration at which 50% hemolysis was observed)” value was greater than 500 µg/mL.

Same assay, conditions: value in parentheses (μM); hRBC 4% in PBS, 2 h, 37 °C, 567 nm
For RRWWRRW-NH2 [1b], the “HC50 (concentration at which 50% hemolysis was observed)” value was greater than 416.52 µM. With RWARRAWRAW-NH2 [4e] the “HC50 (concentration at which 50% hemolysis was observed)” value was greater than 353.69 µM. For RWARRWARWWR-NH2 [5b], the “HC50 (concentration at which 50% hemolysis was observed)” value was greater than 296.74 µM. RWARRWWR-NH2 [2c] was tested, and the “HC50 (concentration at which 50% hemolysis was observed)” value was greater than 393.23 µM. RWARRWWRA-NH2 [3c] was tested, and the “HC50 (concentration at which 50% hemolysis was observed)” value was greater than 372.42 µM. In the case of RWIRRWIRWWR-NH2 [5c], the “HC50 (concentration at which 50% hemolysis was observed)” value is reported as greater than 282.62 µM.

— PMC9841524, “Structure-Based Rational Design of Small α-Helical Peptides with Broad-Spectrum Activity against Multidrug-Resistant Pathogens” (Journal of Medicinal Chemistry, 2022)
